Assay results published in patent publication US20240344020A1, “CULTURE MEDIUM FOR LUNG CANCER EPITHELIAL CELLS, CULTURE METHOD, AND APPLICATION THEREOF” (PRECEDO PHARMACEUTICALS CO., LTD, priority 2021, published 2024).

System: primary lung cancer cells (No. B5)
Assay: Effects of different factors added to basic medium BM on proliferation of primary lung cancer cells (cell count after 12 days)
Type: cell-based, human
Details: factor added alone to BM at the concentrations of Table 3; 12 days culture; FIGS. 1A-D
Protocol: Extracellular matrix gel (Matrigel®) (manufactured by BD Biosciences) was diluted with serum-free DMEM/F12 medium at a ratio of 1:100 to prepare an extracellular matrix diluent. The extracellular matrix diluent was added to a 48-well culture plate with 500 μl/well to completely cover the bottom of the wells of the culture plate. The culture plate was let stand for 1 hour in a 37° C. incubator. After 1 hour, the extracellular matrix diluent was removed to provide a Matrigel-coated plate.
Preparation of basic medium (abbreviated as BM): BM was prepared by adding 0.2 vol. % of Primocin (purchased from Invivogen, with a concentration of 50 mg/ml) to the commercial DMEM/F-12 medium to provide a final concentration of 100 μg/ml.
Next, different kinds and concentrations of additive factors (Table 3) were added to the basic medium (BM), so as to prepare culture mediums for lung cancer epithelial cells containing different additive components.
The culture mediums with different components were added at a volume of 500 μl/well to 48-well plates which were coated with extracellular matrix gel (Matrigel). Lung cancer cells (No. B5) isolated from lung cancer tissues according to the same method as described in Example 1 were inoculated at a cell density of 2×10^4 cells/cm^2 in the above-mentioned 48-well culture plates which were coated with Matrigel. After surface disinfection, the plates were placed in a 37° C., 5% CO2 incubator (purchased from Thermo Fisher), and the same number of freshly isolated lung cancer tumor cells (No. B5) were cultured under different medium formulations. The culture mediums were replaced every 4 days after the start of culture. After 12 days of culture, cell counts were performed. The basic medium (BM) without addition of any additive was used as a control. The results were shown in FIGS. 1A-D. The ordinate in the figures represents the ratio of the number of cells obtained after culture in different mediums to the number of cells obtained after culture in basic medium BM.

interleukin 6: cytokine from Sino Biological Inc.
effect on cell proliferation (ratio of cell number to that in basic medium BM): certain promoting effects on cell proliferation

hepatocyte growth factor: growth factor from Sino Biological Inc.
effect on cell proliferation (ratio of cell number to that in basic medium BM): certain promoting effects on cell proliferation

Cc1cccc(-c2nn(C(=S)Nc3ccccc3)cc2-c2ccnc3ccccc23)n1 [Compound A83-01, A83-01, reference compound]
effect on cell proliferation (ratio of cell number to that in basic medium BM): certain promoting effects on cell proliferation

insulin-like growth factor 1: growth factor from Sino Biological Inc.
effect on cell proliferation (ratio of cell number to that in basic medium BM): certain promoting effects on cell proliferation

C[C@@H](N)[C@H]1CC[C@H](C(=O)Nc2ccncc2)CC1 [Compound Y27632, Y27632, reference compound]
effect on cell proliferation (ratio of cell number to that in basic medium BM): certain promoting effects on cell proliferation

CN1C(=O)C(c2c(F)cccc2F)N(C)c2nc(Nc3ccc(S(N)(=O)=O)cc3)ncc21 (stereo not shown) [Compound 1, 4-((7-(2,6-difluorophenyl)-5,8-dimethyl-6-oxo-5,6,7,8-tetrahydropteridin-2-yl)amino)benzsulfamide]
effect on cell proliferation (ratio of cell number to that in basic medium BM): certain promoting effects on cell proliferation

B1: fibroblast growth factor 7: growth factor from Sino Biological Inc. (protein, UniProt P21781 32-194, looked up)
Fibroblast growth factor 7: CNDMTPEQMATNVNCSSPERHTRSYDYMEGGDIRVRRLFCRTQWYLRIDKRGKVKGTQEMKNNYNIMEIRTVAVGIVAIKGVESEFYLAMNKEGKLYAKKECNEDCNFKELILENHYNTYASAKWTHNGGEMFVALNQKGIPVRGKKTKKEQKTAHFLPMAIT
effect on cell proliferation (ratio of cell number to that in basic medium BM): certain promoting effects on cell proliferation
